Here are results for one compound from patent US20240197687A1, “METHODS OF TREATING NEUROINFLAMMATION AND INHIBITING MONOAMINE OXIDASE-A AND RESTORING/UPREGULATING/INCREASING IL-13 AND AND PGC-1 BY ADMINISTERING ORAL DOSAGE FORM CONTAINING MICRONIZED AND NONMICRONIZED PARTICULATE METAXALONE, ALGINIC ACID AND PROPYLENE GLYCOL ALGINATE” (Primus Pharmaceuticals, Inc., priority 2022, published 2024).

The target in one data set is T1, MAO-A (Homo sapiens, UniProt P21397).
T1 construct: MAO-A was constitutively expressed in microglia cells; endogenous in cells; host or cells: HMC3 human microglial cells
T1 sequence (P21397 1-527): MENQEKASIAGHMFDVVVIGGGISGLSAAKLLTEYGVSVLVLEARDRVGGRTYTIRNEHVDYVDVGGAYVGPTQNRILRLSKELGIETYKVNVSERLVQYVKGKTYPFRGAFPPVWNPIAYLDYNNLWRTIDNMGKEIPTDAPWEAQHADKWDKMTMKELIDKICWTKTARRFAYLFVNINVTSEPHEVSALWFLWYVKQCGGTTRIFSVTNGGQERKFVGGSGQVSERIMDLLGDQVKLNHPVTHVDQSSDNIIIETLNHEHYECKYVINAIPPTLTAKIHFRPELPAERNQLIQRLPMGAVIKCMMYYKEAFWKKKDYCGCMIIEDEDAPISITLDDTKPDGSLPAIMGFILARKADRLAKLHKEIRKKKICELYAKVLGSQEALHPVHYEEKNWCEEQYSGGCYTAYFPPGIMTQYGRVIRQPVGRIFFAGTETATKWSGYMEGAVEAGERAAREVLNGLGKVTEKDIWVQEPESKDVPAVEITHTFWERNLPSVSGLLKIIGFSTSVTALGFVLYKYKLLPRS
Put plainly: MAO-A activity assay (MAO-GLO bioluminescent) in IL-1β-stimulated microglial cells. The data set is classed as cell-based. The following applies: chemiluminescence assay, metaxalone 10, 20, 40 μg/mL, dose-dependent, p<0.0001 vs. IL-1β. As for the experimental part:
MAO-A Activity Assay. MAO-A activity was evaluated by a two-step bioluminescent assay methodology, as previously described (See, Lin, Y. C. et al., MAO-A novel decision maker of apoptosis and autophagy in hormone refractory neuroendocrine prostate cancer cells. Sci. Rep. 2017, 7, 46338) using a MAO-GLO™ assay kit from Promega (Madison, WI, USA). The produced amount of signal (light intensity) was measured using a microplate luminometer (Multilabel Counter Victor3™, PerkinElmer Life Sciences). Human recombinant MAO-A enzyme was used as a positive control. The results are given as relative light units after the background was subtracted.

Data set [1] concerns Mouse Macrophages RAW264.7 cells. The following applies: LPS-stimulated mouse macrophages; cited from earlier work.
The test system of data set [2] is HMC3 microglial cells. Put plainly: RT-qPCR mRNA expression in IL-1β-stimulated HMC3 microglial cells. The following applies: metaxalone 10, 20, 40 μg/mL, p<0.0001 vs. IL-1β. The class given is cell-based, Human. As for the experimental part:
Human microglial HMC3 cell line (CRL-3304) was obtained from ATCC (American Type Culture Collection; Manassas, VA, USA). Cells were cultured in Eagle's minimum essential medium (EMEM) with a supplement of 10% fetal bovine serum (FBS) and 1% antibiotic mixture, and were incubated at 37° C. with 5% of CO2. Both medium and supplements were provided by ATCC (Manassas, VA, USA). Cells were seeded in 6-well plates at a density of 4×10^5 cells/well. A stock solution of metaxalone (Sigma Aldrich, Milan, Italy) was prepared by dissolving metaxalone in DMSO. Sixteen hours after plating (time 0), metaxalone was added at the doses of 10, 20, and 40 μg/mL 1 h following IL-1β stimulation (5 ng/mL; Sigma Aldrich, Milan, Italy). After 6 h cells were harvested for mRNA evaluation. In a separate set of plates, cells were incubated for 24 h before MTT assay to evaluate cell viability. The dose-response curve for IL-1β stimulation can be found at Supplemental FIG. S1. Total RNA was extracted from human microglial HMC3 for RT-qPCR using Trizol LS reagent (Invitrogen, Carlsbad, CA, USA). Two μg of total RNA was reverse transcribed in a final volume of 20 μL using a Superscript VILO kit (Invitrogen, Carlsbad, CA, USA). […] The final primer concentration used to carry out the analysis was 10 μM. Samples from each group were run in duplicate and β-actin was used as an endogenous control. Results were calculated using the 2-ΔΔCT method and expressed as n-fold increase in gene expression using control group as calibrator. […]. et al. Activation of A2A Receptor by PDRN Reduces Neuronal Damage and Stimulates WNT/β-CATENIN Driven Neurogenesis in Spinal Cord Injury. Front. Pharmacol. 2018, 9, 506. Pizzino, G. et al. Effects of the antagomiRs 15b and 200b on the altered healing pattern of diabetic mice. Br. J. Pharmacol. 2018, 175, 644-655.

Data set [3] deals with HMC3 microglial cells.

On to `Cc1cc(C)cc(OCC2CNC(=O)O2)c1` (centres unmarked) [metaxalone, 5-[(3,5-dimethylphenoxy)methyl]-2-oxazolidinone], for which the MAO-A activity entry at MAO-A is given as “suppressed”. Moreover, the inflammatory cytokines entry in data set [1] is reported as “robust reduction”. Also, the “IL-6 mRNA expression” value in the data set with HMC3 microglial cells [2] (IL-1β (5 ng/mL)-stimulated HMC3 cells (IL-6 increased by IL-1β), 6 h, dose-dependent) is recorded as “significantly reverted”. In the data set on HMC3 microglial cells [2] (IL-1β (5 ng/mL)-stimulated HMC3 cells (IL-13 decreased by IL-1β), 6 h, dose-dependent), the “IL-13 mRNA expression” value was “significantly reverted”. Moreover, in the data set with HMC3 microglial cells [2] (IL-1β (5 ng/mL)-stimulated HMC3 cells (TNF-α increased by IL-1β), 6 h, dose-dependent), the “TNF-α mRNA expression” value is recorded as “significantly reverted”. Further, the “NF-κB mRNA expression” value in the data set with HMC3 microglial cells [2] (IL-1β-stimulated HMC3 cells, dose-dependent) is “significantly reduced”. In addition, in the data set with HMC3 microglial cells [2] (IL-1β-stimulated HMC3 cells), the “NRF-2 mRNA expression” value is “significantly upregulated”, the “PGC-1α mRNA expression” value is “marked increase” and the “PPARγ mRNA expression” value was “marked increase”. In addition, the “MAO-A mRNA expression” value in the data set on HMC3 microglial cells [2] (IL-1β-stimulated microglia cells, dose-dependent) is recorded as “markedly reduced”. Also, the “cell viability (MTT)” value in the data set on HMC3 microglial cells [3] is listed as “did not produce any toxic effect”.
